Experimental data as given in the NIST ThermoML archive (doi:10.1016/j.jct.2008.02.003).
Numbers after ± are expanded uncertainties.

Legend:
[1] = Molar enthalpy of transition or fusion; details: Crystal; DSC
[2] = Crystal; DTA
[3] = molar enthalpy of vaporization or sublimation; details: 298.15 K, Calvet microcalorimetry

Molar enthalpy of transition or fusion [1] [kcal/mol]	Normal melting temperature [2] [°C]	molar enthalpy ([3]; Crystal) [kcal/mol]	molar enthalpy ([3]; Liquid) [kcal/mol]	SMILES
5.27 ± 0.12	30.99 ± 0.39	20 ± 0.717	–	COc1cccc(Cl)c1Cl [1,2-dichloro-3-methoxybenzene]
–	–	–	15 ± 0.335	COc1ccc(Cl)cc1Cl [2,4-dichloro-1-methoxybenzene]
–	–	–	13.4 ± 0.335	COc1c(Cl)cccc1Cl [2,6-dichloroanisole]
5.66 ± 0.148	37.37 ± 0.39	18.9 ± 0.717	–	COc1cc(Cl)cc(Cl)c1 [3,5-dichloroanisole]
